Data as given in paper PMC10470178, “Long-acting lenacapavir protects macaques against intravenous challenge with simian-tropic HIV” (eBioMedicine, 2023).

Tested on: HIV-1 NL4-3
Assay: Multi-round viral replication assay in SupT1-CCR5 cells, HIV-1 NL4-3
Assay type: cell-based
Conditions: Human immunodeficiency virus 1, NL43, 168 h, supernatant vRNA 7 days post-infection, mean ± SD of three independent experiments, read-out: mean EC50 against HIV-1 NL4-3
Method: Infectious stocks of stHIV-A19,[23] HIV-1 NL4-3, and SIVmac239 were produced in HEK-293T (RRID: CVCL_1926) cells transfected with full-length viral genome plasmids using the TransIT HEK-293 transfection reagent (Mirus Bio) according to the manufacturer’s instructions. Virus stock infectious titres were determined on TZM-bl reporter cells (RRID: CVCL_B478) as previously described.[26] For experiments using SupT1-CCR5 target cells (RRID: CVCL_X633),[27] cultures were maintained in RPMI 1640 medium supplemented with 10% foetal bovine serum (FBS), 2 mM glutamine, 100 U/ml penicillin, and 100 μg/ml streptomycin. […] Cells were then washed three times to remove input virus, counted, and cultured in triplicate in growth media containing serial threefold dilutions of LEN or no LEN (control). […] Culture supernatants were collected 7 days post-inoculation, clarified by centrifugation, and stored at −80 °C for later quantification of vRNA by quantitative reverse transcription polymerase chain reaction (qRT-PCR). […] The stHIV-A19 stock was quantified with a SYBR Green-based qPCR-based product-enhanced RT (PERT) assay using a purified reverse transcriptase (RT) protein standard, as previously described.[28] […] After 7 days, the virus in culture supernatants was quantified using the PERT assay. […]

CC(C)(C#Cc1ccc(-c2ccc(Cl)c3c(NS(C)(=O)=O)nn(CC(F)(F)F)c23)c([C@H](Cc2cc(F)cc(F)c2)NC(=O)Cn2nc(C(F)(F)F)c3c2C(F)(F)[C@@H]2C[C@H]32)n1)S(C)(=O)=O [LEN, Lenacapavir] was tested. Which EC50 did it give?
The EC50 was 0.086 nM.
